{"source": "patent US20080199484A1", "about": "“Use Of Cox-2 Inhibitor to Prevent T-Cell Anergy Induced By Dendritic Cell Therapy” (CEDARS-SINAI MEDICAL CENTER, priority 2003, published 2008)", "molecules": {"B1": {"name": "TRAIL: TNF-related apoptosis inducing ligand, obtained from PeproTech, used at 300 ng/ml (protein, UniProt P50591 1-281, looked up)", "Tumor necrosis factor ligand …": "MAMMEVQGGPSLGQTCVLIVIFTVLLQSLCVAVTYVYFTNELKQMQDKYSKSGIACFLKEDDSYWDPNDEESMNSPCWQVKWQLRQLVRKMILRTSEETISTVQEKQQNISPLVRERGPQRVAAHITGTRGRSNTLSSPNSKNEKALGRKINSWESSRSGHSFLSNLHLRNGELVIHEKGFYYIYSQTYFRFQEEIKENTKNDKQMVQYIYKYTSYPDPILLMKSARNSCWSKDAEYGLYSIYQGGIFELKENDRIFVSVTNEHLIDMDHEASFFGAFLVG"}, "B2": {"name": "recombinant IL-12: recombinant IL-12 supplementing DC-based glioma immunotherapy (Akasaki et al.) (protein, UniProt P43431 23-215; P43432 23-335, looked up)", "Interleukin-12 subunit alpha": "RVIPVSGPARCLSQSRNLLKTTDDMVKTAREKLKHYSCTAEDIDHEDITRDQTSTLKTCLPLELHKNESCLATRETSSTTRGSCLPPQKTSLMMTLCLGSIYEDLKMYQTEFQAINAALQNHNHQQIILDKGMLVAIDELMQSLNHNGETLRQKPPVGEADPYRVKMKLCILLHAFSTRVVTINRVMGYLSSA", "Interleukin-12 subunit beta": "MWELEKDVYVVEVDWTPDAPGETVNLTCDTPEEDDITWTSDQRHGVIGSGKTLTITVKEFLDAGQYTCHKGGETLSHSHLLLHKKENGIWSTEILKNFKNKTFLKCEAPNYSGRFTCSWLVQRNMDLKFNIKSSSSSPDSRAVTCGMASLSAEKVTLDQRDYEKYSVSCQEDVTCPTAEETLPIELALEARQQNKYENYSTSFFIRDIIKPDPPKNLQMKPLKNSQVEVSWEYPDSWSTPHSYFSLKFFVRIQRKKEKMKETEEGCNQKGAFLVEKTSTEVQCKGGNVCVQAQDRYYNSSCSKWACVPCRVRS"}}, "key": {"[1]": {"system": "CD4+ T cells", "experiment": "Mixed lymphocyte reaction and IFN-γ/IL-10 ELISPOT (Th cell polarization)", "type": "cell-based, human"}, "[2]": {"system": "COX-2 protein in human glioma cells (U-87MG, LN-18, MG-377)", "experiment": "Western blot of COX-2 protein expression in human glioma cells", "type": "cell-based", "details": "glioma cells treated with TRAIL and TNF-α plus COX-2 inhibitor (NS-398 10 μM); FIG. 1A", "experimental": "Samples were extracted with buffer containing 1% Triton X-100, 150 mM NaCl, 50 mM Tris (hydroxymethyl aminomethane) (pH 7.5) and 1 mM phenylmethylsulfonyl fluoride (PMSF). The cell debris was removed by centrifugation at 14,000 g for 20 minutes and the supernatant was subjected to SDS polyacrylamide gel electrophoresis (SDS-PAGE) and loaded on a 7.5% polyacrylamide gel (obtained from Bio-Rad; Hercules, Calif.). Electrophoretic transfer to nitrocellulose membranes (obtained from Amersham Biosciences; Piscataway, N.J.) was followed by immunoblotting with a mouse IgG1 anti-COX-2 antibody (obtained from Phamingen) or a mouse IgG1 anti-beta-tublin (obtained from Sigma). This was followed by hybridization with a peroxidase-linked anti-mouse IgG antibody (obtained from Amersham Bioscience). The signal was detected by chemiluminescence using ECL detection system (obtained from Amersham Bioscience) and Hyperfilm ECL (obtained from Amersham Bioscience).\nExpression of COX-2 protein in human glioma cells was examined by Western blot (FIG. 1A)."}, "[3]": {"system": "CD11c+ DCs", "experiment": "Flow cytometric analysis of DC surface and maturation markers (CD86, HLA-DR, CD83, CCR7)", "type": "cell-based, human", "details": "FIG. 3; for CD83 and CCR7 expression (maturation markers) / CD86 expression, geometric mean: single-cultured iDCs; for CD83 and CCR7 expression (maturation markers): 16 hours co-stimulation, TNF-α 20 ng/ml; for CD86 expression, geometric mean: 16 hours, TRAIL 300 ng/ml and/or PGE2 0.1 μM, untreated iDCs: 647", "protocol": "Human PBMCs were separated from peripheral blood of a healthy donor and the aforementioned glioblastoma patient using Ficoll-Hypaque density centrifugation. PBMC were resuspended in X-Vivo 15 serum-free medium (obtained from Cambrex; Santa Rosa, Calif.) and allowed to adhere to 24-well culture plate at 37° C. The non-adherent cells were removed after 2 hours. CD4+ and CD8+ cells were isolated from these non-adherent cells with MiniMACS cell separation unit (obtained from Milenyi Biotec, Auburn, Calif.) and microbeads conjugated mouse monoclonal anti-human CD4 and CD8 antibody (obtained from Milenyi Biotec). CD4+ and CD8+ cells were used for mixed lymphocyte reaction (MLR) described later. The adherent cells were subsequently cultured in X-Vivo 15 serum-free medium. 20 ng/ml GM-CSF (obtained from BioSource International) and 10 ng/ml IL-4 (obtained from BioSource International) were added to the cultures on days 0, 2, and 4. After 7-day culture, the floating cells were transferred to fresh plates with fresh X-Vivo 15 medium as immature DCs (iDCs). Several iDCs were cultured with 300 ng/ml TRAIL and/or 0.1 μM PGE2 (obtained from Sigma) and/or 20 ng/ml TNF-α for 16 hours (TRAIL-DCs, PGE2-DCs, TRAIL/PGE2-DCs, TRAIL/TNF-α-DCs, TRAIL/TNF-α/PGE2-DCs).\n(§1) Glioma cells were plated to 6-well culture plate at density of 1×10^6 cells/well/2 ml with fresh X-Vivo 15 medium. Several glioma cells were pre-treated with the COX-2 inhibitor NS-398 for 8 hours. The NS-398 treated glioma cells were cultured with TNF-α, TRAIL, and NS-398. The other cells were cultured with TNF-α and TRAIL. After 24 hours culture with these agents, iDCs were put into the wells at the density of 3×10^5 cells/well, and were co-cultured with glioma cells for 16 hours. Several iDCs were cultured with TNF-α/TRAIL or TNF-α/TRAIL/NS-398 without tumor cells. Human glioma cell lines (U-87MG and LN-18) and stable transfectants (LN-18-COX-2 and LN-18-EP) were co-cultured with healthy donor iDCs, and MG-377 were co-cultured with autologous iDCs.\nMonoclonal mouse anti-human antibodies of PE-conjugated CD83, CD86, HLA-DR (obtained from Phamingen), FITC-conjugated CD11c (obtained from BioSource International), and unconjugated CCR7 (R&D Systems; Minneapolis, Minn.) were used for cell surface analysis of DCs. PE-conjugated F(ab′)2 goat anti-mouse immunoglobulins (obtained from DAKO Cytomation; Carpinteria, Calif.) was used for secondary antibody. Mouse IgG1 and IgG2a (obtained from Phamingen) were used for isotype control. DCs were stained with anti-CD86, HLA-DR, CD83, and CCR7 antibodies before staining with anti-CD11c antibody, and CD11c+DCs were isolated with MiniMACS cell separation unit and microbeads-conjugated anti-FITC antibody (obtained from Milenyi Biotec).\nDCs were stained with anti-CD86, HLA-DR, CD83, CCR7, and CD11c antibody. CD11c+ DCs were isolated with cell separation unit and microbease-conjugated anti-FITC antibody."}, "[4]": {"system": "glioma cells (U-87MG, LN-18, MG-377); iDCs", "type": "cell-based", "details": "NS-398 treatment; data not shown"}, "[5]": {"system": "PGE2 in the supernatants of glioma cell cultures", "experiment": "PGE2 ELISA in supernatants of glioma cell cultures", "type": "cell-based, human", "details": "for PGE2 in the culture supernatants (ELISA): FIG. 1B", "protocol": "Tumor cells, including U-87MG human glioma cell line (obtained from American Type Culture Collection; Rockville, Md.), LN-18 cell line (obtained from Dr. Erwin Van Meier, Emory University; Atlanta, Ga.), and primary cultured human glioma MG-377 (obtained from surgical specimen of a glioblastoma patient at neurosurgical institute, Cedars-Sinai Medical Center; Los Angeles, Calif.), were maintained at 37° C. and 5% CO2 in Dulbecco's Modified Eagles Medium (available from Sigma; St. Louis, Mo.; hereinafter “DMEM”) supplemented with 10% heat-inactivated fetal bovine serum (available from Sigma; hereinafter “[…]”), 2 mM […], 10 mM HEPES (available from Sigma), 100 U/ml penicillin (available from Sigma), 100 μg/ml streptomycin (available from Sigma). 100% di-methyl sulfonyl oxygen (available from Sigma; hereinafter “DMSO”) dissolved NS-398 (selective COX-2 inhibitor; obtained from Cayman Chemical) was used at concentrations of 10 μM. Recombinant human TNF-α (obtained from BioSource International; Camarillo, Calif.) was used at a concentration of 20 ng/ml and TRAIL (obtained from PeproTech Inc.; Rocky Hill, N.J.) was used at a concentration of 300 ng/ml.\nas §1, with “iDCs. […]” for “iDCs.”\nPGE2 in the culture supernatants was measured by ELISA (FIG. 1B)."}, "[6]": {"system": "isolated CD11c+ DCs", "experiment": "IL-10 and IL-12p70 ELISA in supernatants of DC cultures", "type": "cell-based, human", "details": "FIG. 4", "protocol": "as §1\nPGE2 ELISA kit (obtained from Cyman Chemical; Ann Arbor, Mich.) was used according to the manufacture's protocol for measurement in the supernatants of glioma cell cultures. IL-10 and IL-12 p70 ELISA kits (obtained from Phamingen) were used according to the manufacture's protocols for measurement in the supernatants of cultures of tumor cells or isolated CD11c+ DCs. CD40-CD40L interaction is a main trigger of IL-12 production by DCs (Cella, M. et al., “Ligation of CD40 on dendritic cells triggers production of high levels of interleukin-12 and enhances T cell stimulatory capacity: T-T help via APC activation,” J. Exp. Med., Vol. 184, pp. 747-752 (1996)). Based on this evidence, cells were co-cultured with NIH-CD40L cells (obtained from Dr. Gang Zeng, National Cancer Institute, N11, MD; the ratio of NIH-CD40L:DCs=1:1) for 16 hours, and the supernatants of co-cultures were used as the samples. The lower detection limit of each kit was 7.8 pg/ml. All samples and standards were run in duplicate.\nIL-10 and IL-12p70 in the supernatants of cultures were measured by ELISA, and the results were statistically compared with NS-398(−) single-cultured DCs (FIG. 4)."}, "[7]": {"system": "COX-2 overexpressing glioma cells", "details": "supplementing with recombinant IL-12, in the absence of COX-2 inhibitor; cited from earlier work"}, "[8]": {"details": "DCs co-cultured with NS-398 treated glioma"}, "[9]": {"details": "single-cultured DCs, compared with NS-398(−) single-cultured DCs"}}, "data": [{"molecule": "CS(=O)(=O)Nc1ccc([N+](=O)[O-])cc1OC1CCCCC1", "note": "[NS-398]", "values": [{"measurement": "DC-mediated Th cell polarization", "setting": "[1]; DCs co-cultured with COX-2-inhibited glioma cells, FIG. 5A-F", "result": "bias toward Th1"}, {"measurement": "Th cell polarization by tumor-infiltrating DCs", "setting": "[1]; LN-18-COX-2 stable transfectant with COX-2 inhibitor", "result": "polarizing the Th cells toward Th1"}, {"measurement": "IL-10 expression (ELISPOT)", "setting": "[1]; co-culture of primary glioma (MG-377) with autologous DCs, FIG. 5E", "result": "decrease in IL-10"}, {"measurement": "interferon-gamma expression (ELISPOT)", "setting": "[1]; co-culture of primary glioma (MG-377) with autologous DCs, FIG. 5F", "result": "decrease in interferon-gamma"}, {"measurement": "IL-10 expression (ELISPOT)", "setting": "[1]; co-cultured DCs and glioma, FIG. 5A, 5B", "result": "decrease in IL-10 expression"}, {"measurement": "interferon-gamma expression (ELISPOT)", "setting": "[1]; co-cultured DCs and glioma, FIG. 5C, 5D", "result": "increase in interferon-gamma expression"}, {"measurement": "COX-2 expression (Western blot)", "setting": "[2]", "result": "did not extinguish the COX-2 expression"}, {"measurement": "geometric means of the expressing markers (CD86, HLA-DR, CD83, CCR7)", "setting": "[3]; DCs co-cultured with glioma cells, with or without NS-398 treatment", "result": "no statistical difference"}, {"measurement": "death ratio in each glioma", "setting": "[4]", "result": "did not cause a change of the death ratio"}, {"measurement": "PGE2 in the culture supernatants (ELISA)", "setting": "[5]; LN-18, each group", "result": "no significant difference"}, {"measurement": "PGE2 produced by the COX-2 transfectant", "setting": "[5]; LN-18-COX-2 stable transfectant", "result": "suppressed the PGE2"}, {"measurement": "PGE2 in the culture supernatants (ELISA)", "setting": "[5]; U-87MG and MG-377, addition of NS-398 10 μM to TRAIL/TNF-α cultures, p<0.01", "result": "significantly reduced"}, {"measurement": "IL-10 (ELISA)", "setting": "[6]; [8]", "result": "downregulation of IL-10"}, {"measurement": "IL-12 (ELISA)", "setting": "[6]; [8]", "result": "augmentation of IL-12"}, {"measurement": "IL-10 production (ELISA)", "setting": "[6]; [9]", "result": "did not effect to change"}, {"measurement": "IL-12p70 production (ELISA)", "setting": "[6]; [9]", "result": "did not effect to change"}]}, {"molecule": "TNF-α", "values": [{"measurement": "CD83 and CCR7 expression (maturation markers)", "setting": "[3]", "result": "induced both CD83 and CCR7 expressions"}]}, {"molecule": "CCCCC[C@H](O)/C=C/[C@H]1[C@H](O)CC(=O)[C@@H]1C/C=C\\CCCC(=O)O", "note": "[PGE2, ProstaglandinE2]", "values": [{"measurement": "Th cell polarization by tumor-infiltrating DCs", "setting": "[1]; soluble PGE2 added into culture supernatant of LN-18-EP", "result": "same effect on Th2 polarization as LN-18-COX-2"}, {"measurement": "CD83 and CCR7 expression (maturation markers)", "setting": "[3]", "result": "did not induce CD83 or CCR7 expression"}, {"measurement": "CD86 expression, geometric mean", "setting": "[3]", "result": 2779}]}, {"molecule": "B1", "values": [{"measurement": "CD83 and CCR7 expression (maturation markers)", "setting": "[3]", "result": "did not induce CD83 or CCR7 expression"}, {"measurement": "CD86 expression, geometric mean", "setting": "[3]", "result": 1086}]}, {"molecule": "B2", "values": [{"measurement": "therapeutic effect of DC-based glioma immunotherapy", "setting": "[7]", "result": "potent therapeutic effect"}]}]}
